Measurements from article PMC11995831, “Synthesis of Novel Isoindolinones: Carbonic Anhydrase Inhibition Profiles, Antioxidant Potential, Antimicrobial Effect, Cytotoxicity and Anticancer Activity” (Journal of Biochemical and Molecular Toxicology, 2025).
Values after ≈ are worked out from the molar mass of the structure shown. “Also recorded” adds a separate entry of the source.

How the values were obtained:
[1] = test system: Staphylococcus aureus ATCC 25923; assay: Disc diffusion, Staphylococcus aureus; settings: for zone of inhibition at 1000 µg/mL: ATCC25923, 24 h, read-out: inhibitory zone diameter, B2 Staphylococcus aureus
[2] = ABTS radical cation scavenging assay; settings: for IC50 ABTS method: ABTS radical scavenging; for antioxidant activity (in words): ABTS scavenging and Fe reduction, compared to BHT, BHA, α-tocopherol; for ABTS radical scavenging (λ734): absorbance at 734 nm, 30 μg/mL concentration
Method: Antioxidant capacity was determined using the ABTS radical cation scavenging method ABTS and potassium persulfate (K2S2O8) were mixed in equal proportions and incubated at room temperature to generate the radical cation. The resulting solution was diluted with ethanol, and the absorbance of the control was adjusted to 0.928 ± 0.025 at 734 nm. Different concentrations of the compounds were prepared, added to test tubes, and adjusted with 0.2 mL of ethanol. To each tube, 0.8 mL of the ABTS radical solution was added. After incubation for 30 min, the absorbance of the remaining ABTS^•+ was measured at 734 nm.

A549 cell line = assay: Anticancer activity, WST-1 assay in A549 cells; settings: WST-1, 24 h exposure, 6.25-500 μg/ml
L929 cells = assay: Cytotoxicity, WST-1 assay in L929 cells; assay type: cell-based; settings: WST-1, 24 h exposure, 6.25-500 μg/ml
[3] = test system: Escherichia coli ATCC 43895; assay: Disc diffusion, Escherichia coli; assay type: cell-based; settings: read-out: inhibitory zone diameter, B3 Escherichia coli; for zone of inhibition at 1000 µg/mL: ATCC43895, compounds at 1000 μg/mL, disc diameter 5 mm, 24 h
Method: All tests were conducted in triplicate.

hCA II = hCA II (Homo sapiens, UniProt P00918); assay: hCA II inhibition assay (esterase activity); assay type: biochemical; settings: for IC50 / Ki: human erythrocyte hCA II, esterase activity
hCA I = hCA I (Homo sapiens, UniProt P00915); assay: hCA I inhibition assay (esterase activity); assay type: biochemical; settings: human erythrocyte hCA I
Chain of hCA I (P00915 whole entry): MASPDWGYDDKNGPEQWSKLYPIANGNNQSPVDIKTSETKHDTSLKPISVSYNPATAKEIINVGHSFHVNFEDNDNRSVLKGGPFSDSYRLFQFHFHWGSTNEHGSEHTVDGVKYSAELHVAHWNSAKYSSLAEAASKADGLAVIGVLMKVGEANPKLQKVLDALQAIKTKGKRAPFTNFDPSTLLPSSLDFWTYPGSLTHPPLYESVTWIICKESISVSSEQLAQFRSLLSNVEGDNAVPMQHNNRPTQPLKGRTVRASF

[4] = Fe3+ reducing power assay (FRAP method); settings: absorbance at 700 nm, 30 μg/mL concentration
Method: The ability of the carbamate compounds to reduce was evaluated using the FRAP assay. Various concentrations of the compounds were dissolved in deionized water to a final volume of 0.2 mL in test tubes. To each tube, 500 µL of potassium […] [K3Fe(CN)6] and 500 µL of phosphate buffer (0.2 M, pH 6.6) were added. The mixture was vortexed and incubated for 20 min at 50°C. Then, 500 µL of 10% trichloroacetic acid was added, and 500 µL of the upper layer of the solution was mixed with 100 µL of 0.1% FeCl3 and 500 µL of distilled water. The absorbance of the reducing effect was recorded using a spectrophotometer at 700 nm.

[5] = test system: Klebsiella pneumoniae ATCC 13883; assay: Disc diffusion, Klebsiella pneumoniae; settings: for zone of inhibition at 1000 µg/mL: ATCC13883, 24 h, read-out: inhibitory zone diameter, B4 Klebsiella pneumonia
[6] = test system: Bacillus subtilis ATCC 6633; assay: Disc diffusion, Bacillus subtilis; settings: for zone of inhibition at 1000 µg/mL: ATCC6633, 24 h, read-out: inhibitory zone diameter, B1 Bacillus subtilis
[7] = test system: Candida albicans ATCC 10231; assay: Disc diffusion, Candida albicans
[8] = test system: Yarrowia lipolytica ATCC 20460; assay: Disc diffusion, Yarrowia lipolytica
[9] = positive control 10 µg disc^−1, disc diameter 5 mm

## CCOS(=O)(=O)N1C(=O)c2ccccc2C1(O)c1ccccc1 (centres unmarked) [2a, Ethyl1‐hydroxy‐3‐oxo‐1‐phenylisoindoline‐2‐sulfonate]
[1]
  zone of inhibition at 1000 µg/mL: 7 mm
[2]
  IC50 ABTS method: 231.00 µg/mL
  antioxidant activity (in words): lowest activity
  ABTS radical scavenging (λ734): 0.835 ± 0.024
A549 cell line
  anticancer activity against A549 cells (in words): dose‐dependent anticancer activity; also recorded: demonstrated inhibitory effects at high doses
L929 cells
  cell proliferation of L929 cells compared with control group (in words): increased cell proliferation
[3]
  zone of inhibition at 1000 µg/mL: 9 mm
hCA II
  IC50: 28.84 ± 0.151 nM
hCA I
  IC50: 24.3 ± 1.98 nM
  Ki: 22 ± 9.21 nM
[4]
  Fe^3+-Fe^2+ reducing (λ700): 1.168 ± 0.058
[5]
  zone of inhibition at 1000 µg/mL: 8 mm
[6]
  zone of inhibition at 1000 µg/mL: 7 mm

## CCCOS(=O)(=O)N1C(=O)c2ccccc2C1(O)c1ccccc1 (centres unmarked) [2b, Propyl1‐hydroxy‐3‐oxo‐1‐phenylisoindoline‐2‐sulfonate]
[1]
  zone of inhibition at 1000 µg/mL: 8 mm
[2]
  IC50 ABTS method: 173.25 µg/mL
  ABTS radical scavenging (λ734): 0.802 ± 0.072
[3]
  zone of inhibition at 1000 µg/mL: 10 mm
hCA II; 2b compared with 2d, Ki hCA II
  increase of activity on hCA II with n-propanol (2b) instead of n-butanol (2d): 1.56 fold
hCA II
  IC50: 231 ± 1 nM
  Ki: 160 ± 46.6 nM
hCA I
  IC50: 42 ± 1.35 nM
  Ki: 49.5 ± 12.1 nM
[4]
  Fe^3+-Fe^2+ reducing (λ700): 1.260 ± 0.079
[5]
  zone of inhibition at 1000 µg/mL: 10 mm
[6]
  zone of inhibition at 1000 µg/mL: 11 mm

## CC(C)OS(=O)(=O)N1C(=O)c2ccccc2C1(O)c1ccccc1 (centres unmarked) [2c, Isopropyl1‐hydroxy‐3‐oxo‐1‐phenylisoindoline‐2‐sulfonate]
[1]
  zone of inhibition at 1000 µg/mL: 19 mm
[2]
  IC50 ABTS method: 40.76 µg/mL
  ABTS radical scavenging (λ734): 0.549 ± 0.049
L929 cells
  cell proliferation of L929 cells compared with control group (in words): increased cell proliferation
[3]
  zone of inhibition at 1000 µg/mL: 18 mm
hCA II
  IC50: 13.02 ± 0.041 nM
  Ki: 9.32 ± 2.35 nM
hCA I
  IC50: 12.6 ± 0.37 nM
  Ki: 11.5 ± 4.18 nM
[4]
  Fe^3+-Fe^2+ reducing (λ700): 1.323 ± 0.133
[5]
  zone of inhibition at 1000 µg/mL: 17 mm
[6]
  zone of inhibition at 1000 µg/mL: 16 mm

## CCCCOS(=O)(=O)N1C(=O)c2ccccc2C1(O)c1ccccc1 (centres unmarked) [2d, Butyl1‐hydroxy‐3‐oxo‐1‐phenylisoindoline‐2‐sulfonate]
[1]
  zone of inhibition at 1000 µg/mL: 14 mm
[2]
  IC50 ABTS method: 99.00 µg/mL
  ABTS radical scavenging (λ734): 0.719 ± 0.032
L929 cells
  cell proliferation of L929 cells compared with control group (in words): increased cell proliferation
[3]
  zone of inhibition at 1000 µg/mL: 13 mm
hCA II
  IC50: 86.37 ± 0.338 nM
  Ki: 251 ± 37.1 nM
hCA I
  IC50: 75.7 ± 1.21 nM
  Ki: 87.1 ± 35.2 nM
[4]
  Fe^3+-Fe^2+ reducing (λ700): 1.278 ± 0.059
[5]
  zone of inhibition at 1000 µg/mL: 12 mm
[6]
  zone of inhibition at 1000 µg/mL: 12 mm

## CC(C)COS(=O)(=O)N1C(=O)c2ccccc2C1(O)c1ccccc1 (centres unmarked) [2e, Isobutyl1‐hydroxy‐3‐oxo‐1‐phenylisoindoline‐2‐sulfonate]
[1]
  zone of inhibition at 1000 µg/mL: 13 mm
[2]
  IC50 ABTS method: 53.30 µg/mL
  ABTS radical scavenging (λ734): 0.624 ± 0.040
[3]
  zone of inhibition at 1000 µg/mL: 14 mm
hCA II
  IC50: 23.85 ± 0.152 nM
  Ki: 37.5 ± 14.7 nM
hCA I
  IC50: 11.8 ± 0.132 nM
  Ki: 33.3 ± 15.1 nM
[4]
  Fe^3+-Fe^2+ reducing (λ700): 1.316 ± 0.023
[5]
  zone of inhibition at 1000 µg/mL: 11 mm
[6]
  zone of inhibition at 1000 µg/mL: 10 mm

## O=C1c2ccccc2C(O)(c2ccccc2)N1S(=O)(=O)OC1CCCCC1 (centres unmarked) [2f, Cyclohexyl1‐hydroxy‐3‐oxo‐1‐phenylisoindoline‐2‐sulfonate]
[1]
  zone of inhibition at 1000 µg/mL: 24 mm
[2]
  IC50 ABTS method: 27.72 µg/mL
  antioxidant activity (in words): highest antioxidant activity
  ABTS radical scavenging (λ734): 0.426 ± 0.132
[3]
  zone of inhibition at 1000 µg/mL: 25 mm
[7]; Candida albicans, ATCC10231, 24 h, read-out: inhibitory zone diameter, F1 Candida albicans
  zone of inhibition at 1000 µg/mL: 19 mm
[8]; Yarrowia lipolytica, ATCC20460, 24 h, read-out: inhibitory zone diameter, F2 Yarrowia lipolytica
  zone of inhibition at 1000 µg/mL: 16 mm
hCA II
  IC50: 27.8 ± 0.17 nM
  Ki: 14.9 ± 3.25 nM
hCA I
  IC50: 11.2 ± 0.291 nM
  Ki: 16.1 ± 4.14 nM
[4]
  Fe^3+-Fe^2+ reducing (λ700): 1.485 ± 0.156
[5]
  zone of inhibition at 1000 µg/mL: 22 mm
[6]
  zone of inhibition at 1000 µg/mL: 20 mm

## CC1(C)S[C@@H]2[C@H](NC(=O)[C@H](N)c3ccccc3)C(=O)N2[C@H]1C(=O)O [Ampicillin, reference compound]
[1]; ATCC25923, read-out: inhibitory zone diameter, B2 Staphylococcus aureus
  zone of inhibition at 10 µg/disc: 21 mm
[3]; ATCC43895, positive control 10 µg disc^−1, disc diameter 5 mm
  zone of inhibition at 10 µg/disc: 20 mm
[5]; ATCC13883, read-out: inhibitory zone diameter, B4 Klebsiella pneumonia
  zone of inhibition at 10 µg/disc: 19 mm
[6]; ATCC6633, read-out: inhibitory zone diameter, B1 Bacillus subtilis
  zone of inhibition at 10 µg/disc: 18 mm

## COc1ccc(O)c(C(C)(C)C)c1 [BHA, reference compound]
[2]
  IC50 ABTS method: 12.83 µg/mL (≈ 71.2 µM)
  ABTS radical scavenging (λ734): 0.201 ± 0.040
[4]
  Fe^3+-Fe^2+ reducing (λ700): 2.625 ± 0.241

## Cc1cc(C(C)(C)C)c(O)c(C(C)(C)C)c1 [BHT, reference compound]
[2]
  IC50 ABTS method: 16.11 µg/mL (≈ 73.1 µM)
  ABTS radical scavenging (λ734): 0.293 ± 0.094
[4]
  Fe^3+-Fe^2+ reducing (λ700): 2.510 ± 0.111

## C[C@@H]1[C@H](O)[C@@H](C)/C=C/C=C/CC/C=C/C=C/C=C/C=C/C(O[C@H]2O[C@H](C)[C@@H](O)[C@H](N)[C@@H]2O)CC2O[C@](O)(CC(O)C(O)CCC(O)CC(O)CC(O)CC(=O)O[C@H]1C)CC(O)C2C(=O)O (some centres unmarked) [Nystatin, reference compound]
[7]; [9]
  inhibitory zone diameter, F1 Candida albicans: 18 mm
[8]; [9]
  inhibitory zone diameter, F2 Yarrowia lipolytica: 15 mm

## Cc1c(C)c2c(c(C)c1O)CC[C@@](C)(CCC[C@H](C)CCC[C@H](C)CCCC(C)C)O2 [α‐Tokoferol, α‐tocopherol, reference compound]
[2]
  IC50 ABTS method: 18.23 µg/mL (≈ 42.3 µM)
  ABTS radical scavenging (λ734): 0.319 ± 0.101
[4]
  Fe^3+-Fe^2+ reducing (λ700): 1.465 ± 0.284
